Where two headings read alike, the source gives them in different places.
How the values were obtained:
[1] = Example 7: bone loss associated with cancer treatments (hormone therapy); format: in vivo; conditions: oral 100 mg in conjunction with hormone therapy; compared to placebo group
Protocol: Individuals suffering from cancer and being treated with hormone therapy are identified. The individuals are divided into 11 groups of 10 each. In conjunction with hormone therapy, Groups 1 through 10 are orally administered 100 mg of histamine, histamine agonists, histamine salts, histamine prodrugs, NADPH-oxidase inhibitors, histamine dihydrochloride, histamine phosphate, serotonin, 5HT agonists, or histamine receptor agonists, respectively. Group 11 receives a placebo in conjunction with hormone therapy.

[2] = oral 50 mg, 100 mg, 200 mg, 1,000 mg; relative to placebo group
Protocol: Individual suffering from various types of osteoporosis, including type I and type II osteoporosis, age-related osteoporosis, disuse osteoporosis, diabetes-related osteoporosis, and steroid-related osteoporosis, are identified. The individuals are separated into 5 groups of 20 individuals. Individuals in Groups 1 through 4 are orally administered 50 mg, 100 mg, 200 mg, and 1,000 mg of histamine, respectively. Individuals in […] are administered a placebo. The rate of bone loss is reduced for Groups 1 through 4 relative to the rate of bone loss for the placebo group.

[3] = Example 1: inhibition of bone resorption in subjects with bone loss; format: in vivo; conditions: effective dose; Groups 1 through 10 compared to placebo Group 11
Protocol: Subjects suffering from bone loss exacerbated by osteoclast-produced ROS are identified. The subjects are separated into 11 groups of 10 subjects each. […] Subjects in Group 11 are administered a placebo.

[4] = oral 125 mg; versus placebo
Protocol: Individuals suffering from bone loss associated with primary and secondary hyperparathyroidism are identified. The individuals are orally administered 125 mg of histamine or a placebo.

[5] = target: membrane bound oxidase of stimulated phagocytes (Homo sapiens, UniProt P04839); conditions: substrate of the membrane bound oxidase; generally accepted (background); cited from earlier work
[6] = oral 75 mg in conjunction with antibiotics; versus antibiotics alone
Protocol: Individuals suffering from osteomyelitis are identified. The individuals are orally administered 75 mg of histamine phosphate in conjunction with antibiotics or antibiotics alone.

[7] = intravenous 5 mg in conjunction with steroid therapy; compared to steroid therapy alone
Protocol: Individuals suffering from bone loss associated with steroid therapy, including treatment with corticosteroids, such as betamethasone, budesonide, cortisone dexamethasone, hydrocortisone, methylprednisolone, prednisolone, prednisone, and triamcinolone, are identified. In conjunction with steroid therapy, the individuals are intravenously administered 5 mg of a ROS scavenger or a placebo.

Row | Structure (SMILES) | bone healing [1] | bone loss [1] | rate of bone loss [2] | rate of bone healing [3] | rate of bone loss [3] | rate of bone loss [4] | trauma to bone cells [4] | Km [5] [µM] | bone healing [6] | bone loss [7]
1 | NCCc1c[nH]cn1 [histamine] | accelerated | inhibited | reduced | accelerated | reduced | reduced | minimized |  |  | 
2 | NC(=O)C1=CN([C@@H]2O[C@H](COP(=O)(O)OP(=O)(O)OC[C@H]3O[C@@H](n4cnc5c(N)ncnc54)[C@H](O)[C@@H]3O)[C@@H](O)[C@H]2O)C=CC1 [NADH] |  |  |  |  |  |  |  | 450 |  | 
3 | NCCc1c[nH]c2ccc(O)cc12 [serotonin] | accelerated | inhibited |  | accelerated | reduced |  |  |  |  | 
4 | NC(=O)C1=CN([C@@H]2O[C@H](COP(=O)(O)OP(=O)(O)OC[C@H]3O[C@@H](n4cnc5c(N)ncnc54)[C@H](OP(=O)(O)O)[C@@H]3O)[C@@H](O)[C@H]2O)C=CC1 [NADPH] |  |  |  |  |  |  |  | 45 |  | 
5 | NCCc1c[nH]cn1.O=P(O)(O)O [histamine phosphate] | accelerated | inhibited |  | accelerated | reduced |  |  |  | accelereated | 
6 | Cl.Cl.NCCc1c[nH]cn1 [histamine dihydrochloride] | accelerated | inhibited |  | accelerated | reduced |  |  |  |  | reduced
